# According to patent publication US10858360B2, “Tricyclic gyrase inhibitors” (priority 2011, dated 2020):
# Key:
# S. aureus ATCC 13709 = test: MIC, S. aureus ATCC 13709 (Alamar Blue broth microdilution); type: cell-based; conditions: Alamar Blue read after overnight incubation at 35° C.; for MIC: Staphylococcus aureus, ATCC13709, S. aureus; for MIC Sa: S. aureus
# E. coli ATCC 25922 = test: MIC, E. coli ATCC 25922; type: cell-based; conditions: Alamar Blue read after overnight incubation at 35° C.; for MIC: Escherichia coli, ATCC25922, E. coli; for MIC Ec: E. coli
SMILES,MIC (S. aureus ATCC 13709) [µg/mL],MIC (E. coli ATCC 25922) [µg/mL],MIC Sa (S. aureus ATCC 13709) [µg/mL],MIC Ec (E. coli ATCC 25922) [µg/mL]
CNc1cc(F)cc2c1[nH]c1nc(Oc3cncnc3)ncc12 [4.031],2,> 16,,
CNc1cc(F)cc2c1[nH]c1nc(Oc3ccc4c(c3)C(=O)NC4)nc(N3CCC4(CC4N)C3)c12 (stereo not shown) [4.266],,,≤0.5,1
CNc1cc(F)cc2c1[nH]c1nc(Oc3cnc(N4CC(C)(N)C4)nc3)nc(N3C[C@H](N)C4(CC4)C3)c12 [4.340],,,1,2
CNc1cc(F)cc2c1[nH]c1nc(Oc3cnc(C)nc3)nc(N3CC4CC(N)C3C4)c12 (stereo not shown) [4.154],,,2,16
CNc1ncnc2c1[nH]c1nc(Oc3cncc(F)c3)nc(N3CC(N)C4(CC4)C3)c12 (stereo not shown) [7.06],8,64,,
CNc1cc(F)cc2c1[nH]c1nc(Oc3cnc(CO)nc3)nc(N3CC4CC(N)C4C3)c12 (stereo not shown) [4.386],≤ 0.5,≤ 0.5,,
CNc1cc(F)cc2c1[nH]c1nc(Oc3cnc4c(ccn4C)c3)nc(N3CC4CC(N)C4C3)c12 (stereo not shown) [4.328],≤ 0.5,1,,
CNc1cccc2c1[nH]c1nc(Oc3cncnc3)nc(N3CCC(C(N)=O)C3)c12 (stereo not shown) [3.17],2,> 16,,
CNc1cc(F)cc2c1[nH]c1nc(Oc3cncc(C(N)=O)c3)nc(N3CC(N)C4(CC4)C3)c12 (stereo not shown) [4.238],,,2,>16
CNc1ncc(Oc2nc(N3CC(N)C4(CC4)C3)c3c(n2)[nH]c2c(NC)cc(F)cc23)cn1 (stereo not shown) [4.216],,,≤0.5,≤0.5
CNc1cccc2c1[nH]c1nc(Sc3cnc4ccc[n+]([O-])c4c3)nc(N3CCC[C@@H](N)C3)c12 [1.34],1,4,,
CNc1cc(F)cc2c1[nH]c1nc(Oc3cnc(C)nc3)nc(N3C4CCC3CC(N)C4)c12 (stereo not shown) [4.091],,,≤0.5,1
CNc1cc(F)cc2c1[nH]c1nc(Oc3cnc(C)nc3)nc(N3CC(NCCN)C4(CC4)C3)c12 (stereo not shown) [4.090],,,≤0.5,4
CNc1cc(F)cc2c1[nH]c1nc(Oc3cncc(C(N)=O)c3)nc(N3CC4CC(N)C4C3)c12 (stereo not shown) [4.239],,,≤0.5,8
CNc1cc(F)cc2c1[nH]c1nc(Oc3cncc([S+](C)[O-])c3)nc(N3CC(N)C4(CC4)C3)c12 (stereo not shown) [4.352],,,≤0.5,4
CNc1cccc2c1[nH]c1nc(Sc3cncc(S(N)(=O)=O)c3)nc(N3CC4C(N)C4C3)c12 (stereo not shown) [1.41],4,8,,

SMILES,MIC (S. aureus ATCC 13709) [µg/mL],MIC (E. coli ATCC 25922) [µg/mL],MIC Sa (S. aureus ATCC 13709) [µg/mL],MIC Ec (E. coli ATCC 25922) [µg/mL]
CNc1cccc2c1[nH]c1nc(Sc3cnc4cccnc4c3)nc(N3CCN(c4cnccn4)CC3)c12 [1.54],≤ 0.5,> 64,,
CNc1cccc2c1[nH]c1nc(Sc3cnc4ccc[n+]([O-])c4c3)nc(N3CC4C(N)C4C3)c12 (stereo not shown) [1.13],,≤ 0.5,≤0.5,
CNc1cc(F)cc2c1[nH]c1nc(Oc3cnc4cccnc4c3)nc(N3C[C@@H]4[C@H](C3)[C@@]4(N)C(N)=O)c12 [4.039],≤ 0.5,2,,
CNc1cc(F)cc2c1[nH]c1nc(Oc3cncnc3)nc(N3CC4C[C@@H]3CN4)c12 [4.022],8,16,,
CNc1cccc2c1[nH]c1nc(Oc3cnc(C)nc3)nc(N3CC4C(C3)C4NCCC#N)c12 (stereo not shown) [3.11],≤ 0.5,2,,
CNc1cccc2c1[nH]c1nc(Oc3cncnc3)nc(N3CC4(CCNC4)C3)c12 [3.67],16,64,,
CNc1cccc2c1[nH]c1nc(Sc3cnc4cccnc4c3)nc(N3CC4C(N)C4C3)c12 (stereo not shown) [1.12],≤ 0.5,1,,
CNc1cc(F)cc2c1[nH]c1nc(Oc3cnc4c(c3)C(=O)N(C)C4)nc(N3CC4C[C@@H](N)C4C3)c12 (stereo partly shown) [4.359],≤ 0.5,≤ 0.5,,
CNc1cc(F)cc2c1[nH]c1nc(Oc3cnc(C4CC4)nc3)nc(N3CC4CCNC3C4)c12 (stereo not shown) [4.248],≤ 0.5,≤ 0.5,,
CNc1nccc2c1[nH]c1nc(Oc3cncnc3)nc(N3CC[C@@H](N)C3)c12 [7.02],> 64,32,,
CNc1cccc2c1[nH]c1nc(Oc3cncnc3)nc(N3CC[C@@H](N)C3)c12 [3.4],0.5,≤ 0.5,,
CNc1cccc2c1[nH]c1nc(Oc3cncnc3)nc(N3CCC[C@@H](N)C3)c12 [3.16],4,4,,
CNc1cc(F)cc2c1[nH]c1nc(Oc3ccc4sc(C)nc4c3)nc(N3CC4CCC(N)C4C3)c12 (stereo not shown) [4.322],,,≤0.5,≤0.5
CNc1cc(F)cc2c1[nH]c1nc(Oc3cncc(C#N)c3)nc(N3CC4CC(N)C4C3)c12 (stereo not shown) [4.053],,,≤0.5,≤0.5
CNc1cc(F)cc2c1[nH]c1nc(Oc3cncc(F)c3)nc(N3CC4(CCC4N)C3)c12 (stereo not shown) [4.061],,,≤0.5,≤0.5
CNc1cc(F)cc2c1[nH]c1nc(Oc3cncnc3)nc(N3CCC(N)C3)c12 (stereo not shown) [4.007],,,≤0.5,≤0.5
